This is an account of results in paper PMC2632303 (Journal of molecular biology, 2008).

pKi: −log10 of the molar value. Where no end group is shown, it is not given here.

For experiment [1], the target named is T1, human 20S proteasome (Homo sapiens, UniProt P25788). The experiment can be described thus: Ki determinations, non-competitive kinetics with Suc-LLVY-AMC. The format is biochemical. As to conditions: for Ki relative to PR11: comparison of Table III values.
The subject of experiment [2] is 20S proteasome. As to conditions: cited from earlier work.
Experiment [3] deals with T1, human 20S proteasome. The experiment can be described thus: Inhibition of chymotrypsin-like activity of 20S proteasome by PR-peptides. As to conditions: same experiment as I50; n of Eq. 1. The format is biochemical.

RRRPRPPALPRW [Peptide A8W12]: in experiment [1], the pKi is 7.29 and the “Ki relative to PR11” value was “nearly half of PR11”.
Regarding RRRPRPPFLPRW [Peptide F8W12], in experiment [1], the pKi is 6.74 and the “Ki relative to PR11” value is reported as “about two-fold greater than that of PR11”.
In the case of RRRPRPPY [PR8], in experiment [2], the “Inhibition of 20S proteasome” value is on record as “does not inhibit 20S proteasome”.
For RRRPRPPYLPR [PR11], the pKi in experiment [1] is 7.06.
On to “RRRPRPPYLPRPRPPPFFPPRLPPRIPPGFPPRFPPRFP [PR39]”, for which, in experiment [3], the “N (fractional occupation of PR-peptide on 20S proteasome, derived from curve-fitting)” value was found to be 1.232.
The sequence RRRPRPPYLPRW [Peptide W12] showed a pKi in experiment [1] of 7.40.

What is called pKi is the Ki on a negative log10 scale, so that one unit is a factor of ten.
